What was measured:
[1] = test system: HCV RNA replicon; assay: HCV RNA replicon assay in Huh7 ET cells; assay type: cell-based; conditions: in comparison to the parent compound 2
[2] = Cytotoxicity by neutral red dye uptake in 2.2.15 cells; assay type: cell-based; conditions: human, 2.2.15 cells (confluent cultures, HBV-replicating)
[3] = test system: 2.2.15 cells; assay: as above; assay type: cell-based; conditions: read-out: Cytotoxicity IC50; 2.2.15 cells, neutral red dye uptake
[4] = test system: wild type HBV; assay: HBV antiviral assay in 2.2.15 cells, HBV DNA by quantitative blot hybridization; assay type: cell-based; conditions: read-out: Anti-HCV activity EC50(µM) virion, extracellular virion HBV DNA, nine consecutive daily doses
[5] = test system: Huh7 ET cells
[6] = test system: HBV WT; assay: Intracellular HBV DNA replication assay, transient transfection, WT; assay type: cell-based; conditions: Hepatitis B virus, 96 h
[7] = test system: HBV mutant rtL180M; assay: Intracellular HBV DNA replication assay, transient transfection, rtL180M; assay type: cell-based; conditions: Hepatitis B virus, 96 h
[8] = test system: HBV mutant rtM204I; assay: Intracellular HBV DNA replication assay, transient transfection, rtM204I; assay type: cell-based; conditions: Hepatitis B virus, 96 h
[9] = test system: HBV mutant rtM204V; assay: Intracellular HBV DNA replication assay, transient transfection, rtM204V; assay type: cell-based; conditions: Hepatitis B virus, 96 h

In the case of `Nc1ncnc2c1c(F)cn2[C@@H]1C=C(CO)[C@@H](O)[C@H]1O` [Compound 12, (-)-(1R, 2S, 3R)-4-Amino-5-fluoro-7-[2,3-dihydroxy-4-hydroxymethyl-4-cyclopenten-1-yl]-7H-pyrrolo[2,3-d]pyrimidine], the “anti-HCV activity (in words)” value [1] is reported as “devoid of anti-HCV activity”.
In the case of `C=Cc1cn([C@@H]2C=C(CO)[C@@H](O)[C@H]2O)c2ncnc(N)c12` [Compound 22, (-)-(1R, 2S, 3R)-4-Amino-5-ethenyl-7-[2,3-dihydroxy-4-hydroxymethyl-4-cyclopenten-1-yl]-7H-pyrrolo[2,3-d]pyrimidine], the IC50 at 9 days [2] is reported as > 300 µM.
For `Nc1ccn([C@@H]2CS[C@H](CO)O2)c(=O)n1` [Compound 3TC, lamivudine, reference compound], the IC50 at 9 days [2] was > 2000 µM.
With “4-amino-7-(2,3-dihydroxy-4-hydroxymethyl-4-cyclopenten-1-yl)-7H-pyrrolo[2,3-d]pyrimidine [Compound 2]” the IC50 [3] was 22 µM, the EC50 [4] was 0.6 µM and the IC50 [5] was > 100 µM.
With `C#Cc1cn([C@@H]2C=C(CO)[C@@H](O)[C@H]2O)c2ncnc(N)c12` [Compound 24, (-)-(1R, 2S, 3R)-4-Amino-5-ethynyl-7-[2,3-dihydroxy-4-hydroxymethyl-4-cyclopenten-1-yl]-7H-pyrrolo[2,3-d]pyrimidine] the IC50 at 9 days [2] was > 300 µM, the EC50 [6] was 2.5 µM and the EC50 [7] was 2 µM. For the same compound, the EC50 [8] was 3 µM and the EC50 [9] was 2.1 µM.
For `Nc1ncnc2c1c(I)cn2[C@@H]1C=C(CO)[C@@H](O)[C@H]1O` [Compound 15, (-)-(1R, 2S, 3R)-4-Amino-5-iodo-7-[2,3-dihydroxy-4-hydroxymethyl-4-cyclopenten-1-yl] -7H-pyrrolo[2,3-d] pyrimidine], the IC50 at 9 days [2] was > 300 µM.

— paper PMC2725430 (Journal of medicinal chemistry, 2009)
